According to PMC10466336, “Chemical Probe for Imaging of Polo-like Kinase 4 and Centrioles” (JACS Au, 2023):

Assays:
[1] = molecular target: T1, 6xHis-tagged Plk4 kinase domain (KD) (Homo sapiens, UniProt O00444); assay: Estimation of fluorescence increase (fluorogenicity) with Plk4 kinase domain versus BSA; conditions: mean of F(+Plk4KD)/F(+BSA) and standard deviation, N = 3; probe 3 µM, 1 h 37 °C
T1 construct: Plasmids encoding fragments of Plk4 kinase domain (2-275) with 6xHis-tag were cloned in pET system vectors; made in house; host or cells: E. coli BL21 gold (DE3)
T1 sequence (O00444 2-275): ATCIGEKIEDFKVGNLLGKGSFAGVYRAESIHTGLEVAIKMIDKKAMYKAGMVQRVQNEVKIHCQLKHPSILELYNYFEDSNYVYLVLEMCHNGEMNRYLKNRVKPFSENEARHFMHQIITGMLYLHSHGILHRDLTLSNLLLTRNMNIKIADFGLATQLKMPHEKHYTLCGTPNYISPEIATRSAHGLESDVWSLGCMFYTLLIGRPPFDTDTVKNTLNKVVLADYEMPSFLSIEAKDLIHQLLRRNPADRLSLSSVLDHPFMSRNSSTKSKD
Text: (§1) Moreover, we substituted the basic acetyl-piperazine nitrogen in compounds (1 and 2a) with an acetyl-piperidine, to avoid probe protonation and accumulation in endolysosomal compartments (Figure S1A, B).[23] This yielded a second generation of centrinone-based probes (compounds 2b–d). These probes were characterized first in vitro by measuring their fluorogenicity in the presence of the 6xHis-tagged Plk4 kinase domain (KD) (Table 1). […] Next, we measured the binding affinities of the probes to the Plk4 kinase domain via a competition binding assay based on fluorescence polarization. […]
1.3.5 Estimation of fluorescence increase
The probes were analysed as described in Lukinavičius et al. 2014 1. Briefly, SiR650 or SiR595- […]
purified Plk4 kinase domain (10 µM in 20 mM Tris, 200 mM NaCl at pH 7.5) or to a bovine serum albumin (BSA) (Sigma) solution (0.2 mg/mL in 20 mM Tris, 200 mM NaCl at pH 7.5). Final concentration of the probe was 3 µM. The samples were incubated for 1 h at 37 °C, and fluorescence was measured in a 96-well plate (Greiner Bio-One) on a plate reader (TECAN Spark® 20M).
Fluorescence emission was recorded from 570 nm to 750 nm for SiR595 probes, and 630 nm to 750 nm for SiR650 while exciting at 550 nm ± 10 nm for SiR595 probes and at 610 ± 10 nm for SiR650 probes.
A fluorescence excitation scan was recorded by measuring the emission at 660 ± 10 nm for SiR595 and 720 ± 10 nm for SiR650 probes, while exciting from 500 nm to 640 nm for SiR595 probes and from […]

[2] = molecular target: T2, Plk4 kinase domain (Homo sapiens, UniProt O00444); assay: Competition binding assay based on fluorescence polarization (tracer Alexa488-PEG-N-centrinone); conditions: Alexa488-PEG-N-centrinone 1 nM, Plk4-KD 5 nM
T2 construct: Plasmids encoding fragments of Plk4 kinase domain (2-275) with 6xHis-tag were cloned in pET system vectors; made in house; host or cells: E. coli BL21 gold (DE3)
T2 sequence (O00444 2-275): T1 sequence (O00444 2-275)
Text: as §1, with “This yielded a second generation of centrinone-based probes (compounds 2b–d).” left out
1.3.6 Fluorescence Polarization assay & competition assay […]
plate (Greiner Bio-One). Upon mixture of protein and ligand, the plate was incubated for 30 min at room temperature followed by fluorescence polarization measurements by a plate reader (TECAN Spark® 20M) using 485 nm as excitation wavelength (bandwidth 20 nm) and 535 nm as emission wavelength (bandwidth 25 nm). The obtained fluorescence polarization values from each well were plotted against the concentration of the protein. The apparent Kd values were obtained by fitting the curve to the […]
FP = FP + FPmax ― FPmin (C + C + K ― (C + C + K )2 ― 4C C ) […]
protein should be around the Kd of the tracer to ensure that enough free protein that can bind the […]
competitor, and enough signal change coming from binding and unbinding of the tracer. The solution of the tracer and protein was titrated with increasing amounts of competitors, in our case SiR650- and […]
The mixture was then incubated for an hour at room temperature and the FP was then measured on a plate reader using the same conditions as mentioned before. From the obtained FP values, we have calculated the amount of free protein in the solution for each concentration of competitor using the equation of the single-site binding isotherm:
Pfree = Kd_tracer FP ― FP
Where Pfree is concentration of free protein, Kd tracer represents the previously determined binding affinity

[3] = molecular target: T3, endogenous Plk4 in HeLa cells expressing Centrin1-GFP (Homo sapiens, UniProt O00444); assay: Live- and fixed-cell confocal/STED imaging of endogenous Plk4; type: cell-based; conditions: added to live cells in culture, 1 µM (Figure S1)
T3 construct: live cell imaging of endogenous Plk4; endogenous in cells; host or cells: HeLa cells stably expressing Centrin1-GFP
T3 sequence (O00444 1-970): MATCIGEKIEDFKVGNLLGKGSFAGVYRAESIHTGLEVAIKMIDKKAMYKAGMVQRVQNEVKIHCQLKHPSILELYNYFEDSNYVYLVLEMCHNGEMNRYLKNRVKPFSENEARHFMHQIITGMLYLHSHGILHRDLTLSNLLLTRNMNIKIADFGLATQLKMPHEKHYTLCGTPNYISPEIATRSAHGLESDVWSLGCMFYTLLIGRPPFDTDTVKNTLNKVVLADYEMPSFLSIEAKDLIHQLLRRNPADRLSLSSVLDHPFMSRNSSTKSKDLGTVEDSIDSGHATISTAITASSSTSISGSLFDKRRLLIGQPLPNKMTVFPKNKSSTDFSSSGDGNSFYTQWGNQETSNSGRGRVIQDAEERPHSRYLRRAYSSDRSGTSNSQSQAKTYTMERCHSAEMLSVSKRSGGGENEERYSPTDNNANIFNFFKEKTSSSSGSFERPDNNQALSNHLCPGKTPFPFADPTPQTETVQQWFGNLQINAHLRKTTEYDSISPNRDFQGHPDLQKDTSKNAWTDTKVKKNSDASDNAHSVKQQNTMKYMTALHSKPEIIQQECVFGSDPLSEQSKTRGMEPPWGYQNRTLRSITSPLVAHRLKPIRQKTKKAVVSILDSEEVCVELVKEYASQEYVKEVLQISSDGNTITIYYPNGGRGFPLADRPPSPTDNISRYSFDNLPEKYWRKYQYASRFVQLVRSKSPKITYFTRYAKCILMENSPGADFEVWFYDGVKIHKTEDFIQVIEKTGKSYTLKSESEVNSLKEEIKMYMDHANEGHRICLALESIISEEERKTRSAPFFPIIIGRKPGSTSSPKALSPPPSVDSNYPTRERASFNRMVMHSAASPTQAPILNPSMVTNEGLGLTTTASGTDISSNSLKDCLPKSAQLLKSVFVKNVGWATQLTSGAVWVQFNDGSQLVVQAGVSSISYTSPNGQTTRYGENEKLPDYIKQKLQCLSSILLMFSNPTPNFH

[4] = test system: HeLa cells expressing Centrin1-GFP; assay: Centriole phenotypic scoring (number of Centrin1-GFP foci); type: cell-based, human; conditions: 24 h incubation, scoring of Centrin1-GFP foci
Text: Having established that SiR595-centrinone (2d) can successfully label overexpressed Plk4, we wanted to investigate whether it also marks endogenous Plk4. […] In contrast, partial Plk4 inhibition leads to increased levels of centriolar Plk4 due to partial interference with protein degradation mediated by autophosphorylation, overall resulting in centriole overamplification.[8] Therefore, both under-duplication and overamplification of centrioles can be used as a proxy for SiR595-centrinone binding to endogenous Plk4. […] We conclude that the failure of SiR595-centrinone (2d) to detect endogenous Plk4 is due to the low binding affinity of the probe in combination with low protein levels. […] In the second step, the Plk4-bound molecule is specifically reacted with an appropriate fluorogenic tetrazine dye.[27]−[33] This strategy was applied previously successfully to label various protein targets in live and fixed cells,[30],[32],[34]−[38] and we reasoned that a smaller and potentially more permeable Cen-TCO (3) derivative would likewise enable more efficient labeling of endogenous Plk4.
We conjugated trans-cyclooctene to the previously obtained compound (4) to obtain Cen-TCO (3) using the synthetic route outlined in Scheme S2. The resulting Cen-TCO (3) reacted with an appropriate tetrazine, such as SiR650-TetH (4a) (Figure S4A). The reaction was followed by LC-MS, and the data confirmed quantitative conversion of Cen-TCO (3) to the appropriate cycloaddition product Cen-Click-SiR650 (Figure S4A, D). […] To assess the phenotype caused by Cen-TCO (3), we incubated HeLa cells expressing Centrin1-GFP with different concentrations of Cen-TCO (3) for 24 h, followed by scoring of Centrin1-GFP foci numbers (Figure S5B). […] Despite the high unspecific background signal, a clear focus could be detected at centrioles (Figure 4B). […] The fwhm of the circular signal in this case was 368 ± 26 (N = 6) (Figure S7B), which corresponds to the size measured with overexpressed GFP-Plk4(K41M) (see Figure 3D), and approximately that of the torus region surrounding the centriole.[40] […]

SMILES | FPIk4/FBSA [1] | Kd [2] [nM] | unspecific labeling in live human cells [3] | concentration causing the centriole under-duplication phenotype [4] [nM]
COc1c(Nc2cc(C)[nH]n2)nc(Sc2ccc(S(=O)(=O)Cc3cccc([N+](=O)[O-])c3F)cc2F)nc1N1CCC(CC(=O)NCCOCCNC(=O)c2ccc(C(=O)O)c(C3=C4C=CC(=N)C=C4[Si](C)(C)c4cc(N)ccc43)c2)CC1 [2b] | 23 ± 1 | 14 ± 4 | – | –
COc1c(Nc2cc(C)[nH]n2)nc(Sc2ccc(S(=O)(=O)Cc3cccc([N+](=O)[O-])c3F)cc2F)nc1N1CCN(CC(=O)NCCOCCNC(=O)c2ccc(C(=O)O)c(C3=C4C=CC(=N)C=C4[Si](C)(C)c4cc(N)ccc43)c2)CC1 [2a] | 10 ± 1 | 26 ± 3 | high unspecific labeling | –
COc1c(Nc2cc(C)[nH]n2)nc(Sc2ccc(S(=O)(=O)Cc3cccc([N+](=O)[O-])c3F)cc2F)nc1N1CCN(CC(=O)NCCOCCNC(=O)c2ccc(C(=O)[O-])c(C3=C4C=CC(=[N+](C)C)C=C4[Si](C)(C)c4cc(N(C)C)ccc43)c2)CC1 [compound 1] | 4 ± 1 | 48 ± 6 | high unspecific labeling | –
COc1c(Nc2cc(C)[nH]n2)nc(Sc2ccc(S(=O)(=O)Cc3cccc([N+](=O)[O-])c3F)cc2F)nc1N1CCC(CC(=O)NCCCCNC(=O)c2ccc(C(=O)O)c(C3=C4C=CC(=N)C=C4[Si](C)(C)c4cc(N)ccc43)c2)CC1 [2c] | 14 ± 2 | 23 ± 6 | – | –
COc1c(Nc2cc(C)[nH]n2)nc(Sc2ccc(S(=O)(=O)Cc3cccc([N+](=O)[O-])c3F)cc2F)nc1N1CCOCC1 [centrinone, reference compound] | – | – | – | ≥ 250
